In patent publication US20050221328A1, “Inhibitors of inflammatory gene activity and cholesterol biosynthesis” (Wyeth, priority 2002, published 2005):
Entries after “also recorded” stand apart in the source; their conditions may differ.

Key:
[1] = tested on: Fnk, JAB, LIX, bcl-3 and SHP; assay: Liver expression of Fnk, JAB, LIX, bcl-3 and SHP by realtime PCR after estrogen receptor ligand pretreatment and IL-1β; conditions: for effect on regulation of liver Fnk, JAB, LIX, bcl-3 and SHP expression vs IL-1β alone: 1 or 10 mg/kg/day E2, 30 mg/kg/day genistein, 10 mg/kg/day ICI182780, plus IL-1β
Description: Referring to FIG. 3a, to distinguish these two mechanisms, the IL-1β fold induction of Fnk, JAB, LIX, and bcl-3 and the IL-1β fold repression of SHP was quantified in animals pretreated with vehicle (black bars) or 100 ug/kg/day EE (grey bars). Liver RNA levels of each gene (mean +/−SEM) were determined by realtime PCR of RNA from each individual animal.
Referring to FIGS. 4a, 4b, 4c, 4d and 4e, experiments were conducted to determine whether EE blocks IL-1β induction of gene expression by an estrogen receptor (ER) dependent mechanism. Estrogens can regulate gene expression by many mechanisms including ER independent pathways such as antioxidant mechanisms. […] Liver expression levels of Fnk, JAB, LIX, bcl-3 and SHP (mean +/−SEM) were determined by realtime PCR.
Referring to FIGS. 5a, 5b, 5c, 5d, and 5e, experiments were conducted to determine whether ERα is required for EE regulation of gene expression in the liver. To determine whether ERα or ERβ mediated the EE effects on IL-1β gene expression in the liver, C57BL/6 wild type mice, C57BL/6 ERαKO mice, or 129 ERβKO mice were pretreated with vehicle (black bars) or […] EE (gray bars) for 5 days followed by a 1 hour treatment with IL-1β. Liver expression levels of Fnk, JAB, LIX, bcl-3, and SHP (mean +/−SEM) were quantified by realtime PCR, with expression in animals receiving vehicle+PBS defined as 1.0.

[2] = tested on: prostaglandin D synthase, IPS; assay: Liver expression of prostaglandin D synthase and IPS; assay type: in vivo; conditions: mouse liver; 30 mg/kg/day genistein, 5 mg/kg/day raloxifene
From the text: Referring to FIGS. 6a and 6b, experiments were constructed and performed to establish that EE induction of gene expression is not required for ERα inhibition of IL-1β gene inductions. […] The expression level in the vehicle+PBS treated mice was defined as 1.0. […] However, there was no correlation between the ability of these compounds to inhibit IL-1β gene induction (EE>genistein>raloxifene) and the ability of these compounds to stimulate prostaglandin D synthase expression (EE>>raloxifene>genistein).

[3] = tested on: human SHP promoter; assay: hSHP promoter luciferase reporter in HepG2 or 293 cells cotransfected with human ERα; assay type: cell-based; conditions: for SHP promoter activity, compound alone: 10 nM E2 or 1 uM compound, 24 hours
Description: Referring to FIGS. 11a and 11b, ERα regulation of hSHP promoter activity in human cells was examined. Human HepG2 or 293 cells were cotransfected with a control SV40 driven β-galactosidase plasmid, a luceriferase plasmid driven by 1.4 kb of the human SHP promoter, and an expression plasmid encoding either no protein or human ERα. […] Cell extracts were then analyzed for luciferase activity normalized for β-galactosidase activity.
Referring to FIGS. 12a, 12b, and 12c, ERα regulation of hSHP promoter activity in 293 cells was examined. Referring to FIGS. 12a and 12b, 293 cells were cotransfected with a control SV4O driven […] plasmid, a luceriferase plasmid driven by either 1.4 kb of the human SHP promoter or a synthetic 2×ERE/TK promoter, and an expression plasmid for human ERα. […] Cell extracts were then analyzed for luciferase activity with normalization for β-galaetosidase activity.

[4] = tested on: SHP; assay: Regulation of SHP expression in mouse liver, six weeks treatment, real time PCR; assay type: in vivo; conditions: for liver SHP mRNA levels, WT animals: ovariectomized wildtype mice, sc six weeks, 10 ug/kg/day E2, 5 mg/kg/day tamoxifen, 5 mg/kg/day PPT
Description: Several experiments were conducted to investigate the regulation of SHP expression, as follows. Referring to FIG. 9, ERα regulation of SHP expression in mouse liver was studied. […] Liver expression of SHP was monitored by real time PCR, with normalization for GAPDH expression. […] ICI182780 inhibited this induction.

[5] = tested on: SHP; assay: Regulation of SHP by estrogen in the rat liver, real time PCR; assay type: in vivo; conditions: ovariectomized Sprague-Dawley rats, 10 ug/kg/day E2 or 5 mg/kg/day PPT, six weeks
From the text: Liver expression of SHP was monitored by real time PCR, with normalization for GAPDH expression.

[6] = tested on: SHP; assay: IL-1β inhibition of SHP expression in HepG2 cells (realtime PCR); assay type: cell-based, human; conditions: 100 U/ml IL-1β, 3 and 6 hours, p<0.05 vs time 0
Description: Referring to FIG. 2, IL-1β inhibition of SHP expression in HepG2 cells was examined as follows. IL-1β is typically not associated with repression of gene expression. To verify a direct IL-1β mediated repression of SHP expression, HepG2 cells were treated with 100 U/ml IL-1β. Total RNA prepared at various times afterward was analyzed for SHP expression by using realtime PCR. […] This was not due to a general decrease in cell viability as SHP mRNA levels returned to baseline levels by 9 hours following IL-1β treatment.

[7] = tested on: mouse liver; conditions: GeneChip, 1 h after 20 ug/kg IL-1β ip, pretreated 5 days with vehicle or 100 ug/kg/day EE sc, vehicle+PBS=1.0;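 also: ovariectomized C57BL/6 mice, liver polyA RNA profiled, values are fold expression relative to vehicle plus PBS, averaged over two independent experiments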
Description: Experiments were conducted to evaluate IL-1β regulation of gene expression in the mouse liver. Ovariectomized C57BL/6 mice were pretreated by subcutaneous administration of either corn oil/ethanol vehicle or 100 ug/kg/day ethynylestradiol (EE) for 5 days. On the fifth day, the mice received an intraperitoneal injection of either PBS or 20 ug/kg IL-1β in PBS. One hour later the livers were removed and polyA RNA was prepared. Global gene expression was determined by analysis using murine 11K GeneChips from Affymetrix. For each gene, the level of expression in animals receiving vehicle pretreatment plus PBS was defined as 1.0, with the expression levels in the mice receiving vehicle pretreatment±IL-1β or EE pretreatment±IL-1β defined relative to this. The results shown are the mean from two independent experiments.
The fold regulation of each gene is plotted for animals receiving vehicle pretreatment x-axis) vs. animals receiving pretreatment with EE (y-axis). Genes with IL-1β induction unaffected by EE pretreatment would lie along the dotted diagonal.

[8] = mice, 100 ug/kg/day EE, 5 mg/kg/day raloxifene

With `O=C(c1ccc(OCCN2CCCCC2)cc1)c1c(-c2ccc(O)cc2)sc2cc(O)ccc12` [raloxifene] the “SHP expression in liver” value ([1]; mice, 5 mg/kg/day raloxifene (FIG. 4)) was “did not increase”, the “effect on regulation of liver Fnk, JAB, LIX, bcl-3 and SHP expression vs IL-1β alone” value [1, 8] was “magnitude was not as great” and the “inhibition of IL-1β induction of Fnk, JAB, LIX and bcl-3” value ([1]; mouse liver, 100 ug/kg/day EE, 30 mg/kg/day genistein, 5 mg/kg/day raloxifene) was “able to inhibit; also recorded: inhibited”. The “induction of IPS” value [2] was “very weak induction”, the “SHP promoter activity, compound alone” value ([3]; 293 cells with human ERα) was “inactive alone” and the “effect on E2 activity at SHP promoter” value ([3]; 293 cells with human ERα, 1 uM compound plus 10 nM E2) was “antagonized”.

`CCCc1c(-c2ccc(O)cc2)nn(-c2ccc(O)cc2)c1-c1ccc(O)cc1` [PPT] was tested, and the “liver SHP mRNA levels, WT animals” value [4] was “induced” and the “liver SHP expression, rat” value [5] was “significantly induced”.

`C[C@]12CC[C@@H]3c4ccc(O)cc4CC[C@H]3[C@@H]1CC[C@@H]2O` [E2, 17β-estradiol] was tested, and the “effect on regulation of liver Fnk, JAB, LIX, bcl-3 and SHP expression vs IL-1β alone” value [1, 8] was “greatest effect”, the “expression of SHP in ERαKO or ERαβKO mice” value ([4]; 10 ug/kg/day E2, six weeks) was “did not induce” and the “expression of SHP in ERβKO mice” value ([4]; 10 ug/kg/day E2, six weeks) was “still induced”. For the same compound, the “liver SHP mRNA levels, WT animals” value [4] was “induced”, the “liver SHP expression, rat” value [5] was “significantly induced” and the “SHP promoter activity, compound alone” value ([3]; 293 cells with human ERα) was “stimulated”. The SHP promoter activity ([3]; HepG2 or 293 cells, 10 nM E2 24 hours, only in cells expressing ERα) was “induced”.

For “IL-1: cytokine IL-1β, injected intraperitoneally in PBS or added to HepG2 cells”, the “IL-1 repression of SHP expression” value ([1]; mouse liver, realtime PCR, vehicle treated or 100 ug/kg/day EE treated animals) was 86%, the “IL-1 induction of bcl-3” value ([1]; mouse liver, realtime PCR, vehicle treated or 100 ug/kg/day EE treated mice, IL-1 vs PBS) was 6.2 fold and the SHP expression [6] was “significantly reduced”. The “IL-1 Induction A20 (Tnfaip3)” value [7] was 14.0 fold, the “IL-1 Induction B94, TNF-α induced protein 2 (Tnfaip2)” value [7] was 17.1 fold and the “IL-1 Induction C/EBPδ (Cebpd)” value [7] was 7.0 fold. The “IL-1 Induction CD14 (Cd14)” value [7] was 3.5 fold, the “IL-1 Induction CD83 (Cd83)” value [7] was 6.2 fold and the “IL-1 Induction E-selectin (Sele)” value [7] was 7.2 fold. The “IL-1 Induction Ets transcription factor ELF3 (Elf3)” value [7] was 22.5 fold, the “IL-1 Induction G0/G1 switch gene 2 (G0s2)” value [7] was 0.11 fold and the “IL-1 Induction GTP binding protein IRG-47 (lfi47)” value [7] was 5.4 fold. The “IL-1 Induction Gadd45 (Gadd45a)” value [7] was 10.9 fold, the “IL-1 Induction Glvr-1 (Slc20a1)” value [7] was 3.9 fold and the “IL-1 Induction H-2Ld (H-2L)” value [7] was 8.2 fold. For the same compound, the “IL-1 Induction ICAM-1 (lcam1)” value [7] was 40.9 fold, the “IL-1 Induction IL-1m (Il1m)” value [7] was 23.6 fold and the “IL-1 Induction IL-15 receptor (Il15ra)” value [7] was 9.2 fold. The “IL-1 Induction IxBa (Nfkbia)” value [7] was 8.7 fold, the “IL-1 Induction JAB, suppressor of cytokine signaling 1 (Cish1)” value [7] was 7.3 fold and the “IL-1 Induction JE/MCP-1 (Scya2)” value [7] was 82.3 fold. The “IL-1 Induction LIX (Scyb5)” value [7] was 5.2 fold, the “IL-1 Induction LPS inducible C—C chemokine receptor related (AF030185)” value [7] was 6.3 fold and the “IL-1 Induction M-CSF (Csf1)” value [7] was 32.8 fold. The “IL-1 Induction MARCKS-like macrophage protein (Mlp)” value [7] was 4.8 fold, the “IL-1 Induction MIG (Scyb9)” value [7] was 15.0 fold and the “IL-1 Induction MIP2 (Scyb2)” value [7] was 60.1 fold. For the same compound, the “IL-1 Induction MIP-1 gamma (Scya9)” value [7] was 2.9 fold, the “IL-1 Induction MyD118 (GADD45b)” value [7] was 24.3 fold and the “IL-1 Induction NF-E2 related factor 2 (NRF2) (Nfe212)” value [7] was 5.2 fold. For the same compound, the “IL-1 Induction NF-kappa-B p105 (Nfkb1)” value [7] was 13.8 fold, the “IL-1 Induction NFkB p100 (Nfkb2)” value [7] was 4.0 fold and the “IL-1 Induction PAI-1 (Serpine1)” value [7] was 37.6 fold. For the same compound, the “IL-1 Induction PDGF-induced KC (Gro1)” value [7] was 7.3 fold, the “IL-1 Induction PIM-1 protein kinase (Pim1)” value [7] was 2.4 fold and the “IL-1 Induction SHP (NrGb2)” value [7] was 0.23 fold. For the same compound, the “IL-1 Induction T-cell death associated gene (Tdag)” value [7] was 2.5 fold, the “IL-1 Induction T-cell specific GTPase (Tgtp)” value [7] was 4.4 fold and the “IL-1 Induction TGFB inducible early growth response (Tieg)” value [7] was 0.31 fold. The “IL-1 Induction Ubiquitin-conjugating E2 enzyme variant 2 (Ube2v2)” value [7] was 5.0 fold, the “IL-1 Induction VCAM-1 (Vcam1)” value [7] was 5.2 fold and the “IL-1 Induction adrenergic receptor, beta 2 (Adrb2)” value [7] was 2.9 fold. For the same compound, the “IL-1 Induction adrenomedullin (Adm)” value [7] was 11.3 fold, the “IL-1 Induction apoptosis inhibitor 1 (Birc2)” value [7] was 12.2 fold and the “IL-1 Induction apoptosis inhibitor 2 (Birc3)” value [7] was 9.6 fold. The “IL-1 Induction bcl-3 (Bcl3)” value [7] was 11.6 fold, the “IL-1 Induction c-JUN (Jun)” value [7] was 4.8 fold and the “IL-1 Induction calcium binding protein A6 (S100a6)” value [7] was 2.4 fold. For the same compound, the “IL-1 Induction calgranulin A (S100A8)” value [7] was 10.4 fold, the “IL-1 Induction calgranulin B (S100a9)” value [7] was 12.5 fold and the “IL-1 Induction cytokine-inducible kinase Fnk (Cnk)” value [7] was 2.9 fold. For the same compound, the “IL-1 Induction gly96 (ler3)” value [7] was 42.1 fold, the “IL-1 Induction growth factor receptor bound protein 7 (Grb7)” value [7] was 0.27 fold and the “IL-1 Induction guanylate nucleotide binding protein 2 (Gbp2)” value [7] was 6.5 fold. For the same compound, the “IL-1 Induction helix-loop-helix factor HES-1 (Hes1)” value [7] was 0.09 fold, the “IL-1 Induction heme oxygenase 1 (Hmox1)” value [7] was 5.5 fold and the “IL-1 Induction hsp68 (Hsp70-3)” value [7] was 6.3 fold. The “IL-1 Induction inducible 6-phosphofructo-2-kinase (AA163244)” value [7] was 4.0 fold, the “IL-1 Induction inhibitor of DNA binding 3 (idb3)” value [7] was 6.0 fold and the “IL-1 Induction insulin-like growth factor binding protein 1 (lgfbp1)” value [7] was 4.0 fold. The “IL-1 Induction intercrine (Scya7)” value [7] was 12.4 fold, the “IL-1 Induction interferon regulatory factor 1 (Irf1)” value [7] was 10.5 fold and the “IL-1 Induction junB (Junb)” value [7] was 2.9 fold. The “IL-1 Induction lipocalin 2 (Lcn2)” value [7] was 5.5 fold, the “IL-1 Induction lkB-beta (Nfkbib)” value [7] was 4.0 fold and the “IL-1 Induction m-myc (Myc)” value [7] was 3.0 fold. For the same compound, the “IL-1 Induction macrophage interferon inducible protein 10 (Scyb10)” value [7] was 50.1 fold, the “IL-1 Induction metalloproteinase-disintegrin (Adamts1)” value [7] was 2.7 fold and the “IL-1 Induction molecule possessing ankyrin-repeats induced by LPS (aa614971)” value [7] was 22.7 fold. The “IL-1 Induction myocyte-enriched calcineurin interactin protein (Dscrl)” value [7] was 11.1 fold, the “IL-1 Induction noctumin (Ccr4)” value [7] was 7.7 fold and the “IL-1 Induction p65 NF-kappa B (Rela)” value [7] was 2.5 fold. The “IL-1 Induction phospholipid scramblase 1 (Plscr1)” value [7] was 4.4 fold, the “IL-1 Induction protein tyrosine phosphatase 4a1 (Ptp4a1)” value [7] was 2.0 fold and the “IL-1 Induction regulator for ribosome resistance homolog (Rrr)” value [7] was 2.8 fold. The “IL-1 Induction relB (Relb)” value [7] was 7.0 fold, the “IL-1 Induction rhoB (Arhb)” value [7] was 30.0 fold and the “IL-1 Induction serum amyloid A 3 (Saa3)” value [7] was 37.4 fold. For the same compound, the “IL-1 Induction serum amyloid A 4 (Saa4)” value [7] was 2.5 fold, the “IL-1 Induction suppressor of cytokine signaling 2 (Cish2)” value [7] was 2.7 fold and the “IL-1 Induction suppressor of cytokine signaling 3 (Cish3)” value [7] was 13.5 fold. The “IL-1 Induction transglutaminase (Tgm2)” value [7] was 2.2 fold.
